What was measured:
TAAR1 = assay: Calculated Kd of the radioligand used in the TAAR1 binding assay; settings: species not stated
Experimental: Each experiment was performed in duplicate.

rat TAAR1 = rat TAAR1 (Rattus norvegicus, UniProt Q923Y9); assay: Radioligand binding on membranes of HEK293 cells stably expressing rat TAAR1
mouse TAAR1 = mouse TAAR1 (Mus musculus, UniProt Q923Y8); assay: Radioligand binding on membranes of HEK293 cells stably expressing mouse TAAR1
Sequence of mouse TAAR1 (Q923Y8 whole entry): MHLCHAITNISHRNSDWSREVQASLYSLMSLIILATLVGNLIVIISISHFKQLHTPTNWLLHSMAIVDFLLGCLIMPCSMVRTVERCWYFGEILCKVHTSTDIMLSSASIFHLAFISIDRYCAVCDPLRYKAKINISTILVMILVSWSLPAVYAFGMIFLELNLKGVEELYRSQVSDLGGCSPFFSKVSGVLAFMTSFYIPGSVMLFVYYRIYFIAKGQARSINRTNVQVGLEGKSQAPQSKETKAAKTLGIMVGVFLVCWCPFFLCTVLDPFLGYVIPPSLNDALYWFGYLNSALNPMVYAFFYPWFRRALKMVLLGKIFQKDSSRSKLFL

Sequence of rat TAAR1 (Q923Y9 whole entry): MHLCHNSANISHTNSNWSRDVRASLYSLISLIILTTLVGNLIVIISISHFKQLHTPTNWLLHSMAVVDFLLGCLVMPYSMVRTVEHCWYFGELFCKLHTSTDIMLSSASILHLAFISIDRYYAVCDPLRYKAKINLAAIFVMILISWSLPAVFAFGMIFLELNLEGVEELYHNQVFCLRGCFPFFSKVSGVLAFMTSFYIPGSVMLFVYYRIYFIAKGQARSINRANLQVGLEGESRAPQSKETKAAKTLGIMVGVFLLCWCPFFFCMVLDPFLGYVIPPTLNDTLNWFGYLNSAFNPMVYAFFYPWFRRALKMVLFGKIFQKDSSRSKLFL

| Compound | Ki (rat TAAR1) [nM] | Ki (mouse TAAR1) [nM] | Kd (TAAR1) [nM] |
| --- | --- | --- | --- |
| c1ccc2c(c1)CCCC2C1=NCCN1 (racemic) | – | – | 60 |
| CN(C[C@H]1COC(N)=N1)c1ccc(C(F)(F)F)cc1 [Example 134, (S)-4-{[Methyl-(4-trifluoromethyl-phenyl)-amino]-methyl}-4,5-dihydro-oxazol-2-ylamine] | 3.6 | 5.7 | – |
| CC(C)N(C[C@H]1COC(N)=N1)c1ccc(Cl)c(Cl)c1 [Example 15, (S)-4-{[(3,4-Dichloro-phenyl)-isopropyl-amino]-methyl}-4,5-dihydro-oxazol-2-ylamine] | 0.8 | 22.4 | – |
| CN(C[C@@H]1COC(N)=N1)c1ccc2ccccc2c1 [Example 162, (R)-4-[(Methyl-naphthalen-2-yl-amino)-methyl]-4,5-dihydro-oxazol-2-ylamine] | 15.5 | 7.7 | – |
| COc1cc(N(C)C[C@@H]2COC(N)=N2)ccc1Cl [Example 140, (R)-4-{[(4-Chloro-3-methoxy-phenyl)-methyl-amino]-methyl}-4,5-dihydro-oxazol-2-ylamine] | 4.1 | 2.6 | – |
| Cc1ccc(NC[C@H]2COC(N)=N2)c(F)c1 [Example 117, (S)-4-[(2-Fluoro-4-methyl-phenylamino)-methyl]-4,5-dihydro-oxazol-2-ylamine] | 18.2 | 2.8 | – |
| CN(C[C@@H]1COC(N)=N1)c1ccc(Cl)cc1 [Example 125, (R)-4-{[(4-Chloro-phenyl)-methyl-amino]-methyl}-4,5-dihydro-oxazol-2-ylamine] | 5.6 | 2.3 | – |
| CN(C[C@H]1COC(N)=N1)c1ccc(Cl)c(Cl)c1 [Example 7, (S)-4-{[(3,4-Dichloro-phenyl)-methyl-amino]-methyl}-4,5-dihydro-oxazol-2-ylamine] | 0.3 | 1.4 | – |
| COc1cc(N(C)C[C@H]2COC(N)=N2)ccc1Cl [Example 27, (S)-4-{[(4-Chloro-3-methoxy-phenyl)-methyl-amino]-methyl}-4,5-dihydro-oxazol-2-ylamine] | 1.6 | 7.3 | – |
| CN(C[C@H]1COC(N)=N1)c1ccc(F)cc1F [Example 146, (S)-4-{[(2,4-Difluoro-phenyl)-methyl-amino]-methyl}-4,5-dihydro-oxazol-2-ylamine] | 6.2 | 3.1 | – |
| CN(C[C@H]1COC(N)=N1)c1cc(Cl)cc(Cl)c1 [Example 160, (S)-4-{[(3,5-Dichloro-phenyl)-methyl-amino]-methyl}-4,5-dihydro-oxazol-2-ylamine] | 0.9 | 1.3 | – |
| NC1=N[C@@H](CNc2ccccc2Cl)CO1 [Example 119, (S)-4-[(2-Chloro-phenylamino)-methyl]-4,5-dihydro-oxazol-2-ylamine] | 4.2 | 1.1 | – |
| CC(C)N(C[C@@H]1COC(N)=N1)c1ccc(Cl)cc1 [Example 129, (R)-4-{[(4-Chloro-phenyl)-isopropyl-amino]-methyl}-4,5-dihydro-oxazol-2-ylamine] | 2.7 | 8.8 | – |
| COc1cc(N(C)C[C@@H]2COC(N)=N2)ccc1F [Example 138, (R)-4-{[(4-Fluoro-3-methoxy-phenyl)-methyl-amino]-methyl}-4,5-dihydro-oxazol-2-ylamine] | 9.3 | 4.4 | – |
| CN(C[C@H]1COC(N)=N1)c1ccccc1 [Example 30, (S)-4-[(Methyl-phenyl-amino)-methyl]-4,5-dihydro-oxazol-2-ylamine] | 1.7 | 16.3 | – |
| CCN(C[C@H]1COC(N)=N1)c1cc(Cl)cc(Cl)c1 [Example 165, (S)-4-{[(3,5-Dichloro-phenyl)-ethyl-amino]-methyl}-4,5-dihydro-oxazol-2-ylamine] | 0.9 | 1.4 | – |
| CCN(C[C@H]1COC(N)=N1)c1ccc(C(F)(F)F)cc1C [Example 175, (S)-4-{[Ethyl-(2-methyl-4-trifluoromethyl-phenyl)-amino]-methyl}-4,5-dihydro-oxazol-2-ylamine] | 8.3 | 9.2 | – |
| NC1=N[C@@H](CNc2cccc(Cl)n2)CO1 [Example 135, ((S)-2-Amino-4,5-dihydro-oxazol-4-ylmethyl)-(6-chloro-pyridin-2-yl)-amine] | 48.9 | 8.7 | – |
| Cc1ccc(N(C)C[C@H]2COC(N)=N2)c(F)c1 [Example 113, (S)-4-{[(2-Fluoro-4-methyl-phenyl)-methyl-amino]-methyl}-4,5-dihydro-oxazol-2-ylamine] | 6.2 | 2.8 | – |
| CCN(C[C@H]1COC(N)=N1)c1cc(F)cc(C(F)(F)F)c1 [Example 109, (S)-4-{[Ethyl-(3-fluoro-5-trifluoromethyl-phenyl)-amino]-methyl}-4,5-dihydro-oxazol-2-ylamine] | 1.7 | 2.5 | – |

The next lines start with results.

| Ki (rat TAAR1) [nM] | Ki (mouse TAAR1) [nM] | Compound | Kd (TAAR1) [nM] |
| --- | --- | --- | --- |
| 2.7 | 1.9 | CCN(C[C@H]1COC(N)=N1)c1cccc(C)c1 [Example 65, (S)-4-[(Ethyl-m-tolyl-amino)-methyl]-4,5-dihydro-oxazol-2-ylamine] | – |
| 4.9 | 4.2 | CCN(C[C@H]1COC(N)=N1)c1ccc(C(F)(F)F)cc1 [Example 133, (S)-4-{[Ethyl-(4-trifluoromethyl-phenyl)-amino]-methyl}-4,5-dihydro-oxazol-2-ylamine] | – |
| 4.7 | 1.2 | CN(C[C@H]1COC(N)=N1)c1cccc(Br)c1 [Example 34, (S)-4-{[(3-Bromo-phenyl)-methyl-amino]-methyl}-4,5-dihydro-oxazol-2-ylamine] | – |
| 0.9 | 3.4 | CCN(C[C@@H]1COC(N)=N1)c1ccc(Cl)c(OC)c1 [Example 141, (R)-4-{[(4-Chloro-3-methoxy-phenyl)-ethyl-amino]-methyl}-4,5-dihydro-oxazol-2-ylamine] | – |
| 3.2 | 6 | CCN(C[C@H]1COC(N)=N1)c1ccc2c(c1)CCC2 [Example 99, (S)-4-[(Ethyl-indan-5-yl-amino)-methyl]-4,5-dihydro-oxazol-2-ylamine] | – |
| 1.8 | 9.7 | CCN(C[C@H]1COC(N)=N1)c1cccc(Br)c1 [Example 37, (S)-4-{[(3-Bromo-phenyl)-ethyl-amino]-methyl}-4,5-dihydro-oxazol-2-ylamine] | – |
| 0.6 | 2.3 | CCN(C[C@H]1COC(N)=N1)c1ccc(Cl)c(OC)c1 [Example 28, (S)-4-{[(4-Chloro-3-methoxy-phenyl)-ethyl-amino]-methyl}-4,5-dihydro-oxazol-2-ylamine] | – |
| 0.9 | 3.5 | CCN(C[C@H]1COC(N)=N1)c1ccc(Cl)cc1 [Example 11, (S)-4-{[(4-Chloro-phenyl)-ethyl-amino]-methyl}-4,5-dihydro-oxazol-2-ylamine] | – |
| 0.6 | 2.8 | CCN(C[C@H]1COC(N)=N1)c1ccc(Br)cc1 [Example 32, (S)-4-{[(4-Bromo-phenyl)-ethyl-amino]-methyl}-4,5-dihydro-oxazol-2-ylamine] | – |

Reference: patent US7902238B2, “2-aminooxazolines as TAAR1 ligands” (Hoffmann-La Roche Inc., priority 2007, dated 2011)
